Test results published in patent publication US6794406B2, “Indole derivatives” (Bayer Aktiengesellschaft, priority 2000, dated 2004).

These molecules were tested on luciferase gene under the control of a thyroid hormone-regulated promoter (TRE) in HepG2 hepatocarcinoma cell (assay: T3 promoter assay cell test). Conditions: stably transfected human HepG2 cells; luciferase induction; incubated 48 or 72 hours with costimulator retinolic acid; four replicates.
Type: cell-based
Procedure: The efficacy of the compounds according to the invention can be tested, for example, in vitro by the T3 promoter assay cell test described below:
The test is carried out using a stably transfected, human HepG2 hepatocarcinoma cell which expresses a luciferase gene under the control of a thyroid hormone-regulated promoter. The vector used for the transfection carries, ahead of the luciferase gene, a minimal thymidine kinase promoter having a thyroid hormone-responsive element (TRE), which consists of two inverted palindromes of 12 Bp each and an 8 Bp spacer.
For the test, the cell cultures are inoculated into 96 well plates in Eagle's Minimal Essential Medium with the following additives: glutamine, tricine [N-(tris(hydroxymethyl)methyl)glycine], sodium pyruvate, non-essential amino acids (L-Ala, L-Asn, L-Asp, L-Pro, L-Ser, L-Glu, Gly), insulin, selenium and transferrin. The cultures are grown for 48 hours at 37° C. and under a 10% CO2 atmosphere. Serial dilutions of test substance or reference compound (T3, T4) and costimulator retinolic acid are then added to the test cultures and these are incubated as beforehand for a further 48 or 72 hours. Each substance concentration is tested in four replicates. For the determination of the luciferase induced by T3 or other substances, the cells are then lysed by addition of a Triton- and luciferin-containing buffer (from Promega) and immediately measured luminometrically. The EC50 values of each compound are calculated.

Structure (SMILES) | EC50
Cc1cc(NCC(=O)O)cc(C)c1Oc1ccc2[nH]cc(C(C)C)c2c1 [Example 5, N-{4-[(3-Isopropyl-1H-indol-5-yl)oxy]-3,5-dimethylphenyl}glycine] | 22 nM
CC(C)c1c[nH]c2ccc(Oc3c(C(F)(F)F)cc(CC(=O)O)cc3C(F)(F)F)cc12 [Example 11, 4-(3-Isopropyl-1H-indol-5-yloxy)-3,5-bis-trifluoromethylphenylacetic acid] | 0.5 nM
Cc1cc(NC(=O)CC(=O)O)cc(Cl)c1Oc1ccc2[nH]cc(C(C)C)c2c1 [Example 6, 3-({3-Chloro-4-[(3-isopropyl-1H-indol-5-yl)oxy]-5-methylphenyl}amino)-3-oxo-propionic acid] | 8 nM

Results, then the molecule that gave them:

EC50 | Structure (SMILES)
4 nM | CC(C)c1c[nH]c2ccc(Oc3c(C(F)(F)F)cc(CCC(=O)O)cc3C(F)(F)F)cc12 [Example 15, 4-(3-Isopropyl-1H-indol-5-yloxy)-3,5-bis-trifluoromethylphenylpropionic acid]
21 nM | Cc1cc(OCC(=O)O)cc(C)c1Oc1ccc2[nH]cc(C(C)C)c2c1 [Example 16, {4-[(3-Isopropyl-1H-indol-5-yl)oxy]-3,5-dimethylphenoxy}acetic acid]
